Data published in US10166246B2, “TGR5 agonist complexes for treating diabetes and cancer” (City of Hope, priority 2014, dated 2019).
Entries after “also recorded” stand apart in the source; their conditions may differ.

Experiments:
db/db mice = assay: 5-week treatment of diabetic db/db mice (body weight, fasting glucose, liver and kidney weight, HbA1c); format: in vivo, mouse; conditions: for significance of the effect in body weight loss: 30 mg/kg BW (0.057 mmol), 5 weeks
Protocol: FIG. 8 Effect on body weight of administration of ligand and complex administered […] for 5 weeks in db/db mice (seven per group), with vehicle controls.
For each experiment, there were 8 groups of mice representing the different treatments. […] Eleven-week old male normal and high-fat fed C57BL/6J mice and 7-week old male B6.BKS-Lepr^db (db/db) mice (The Jackson Laboratory, Bar Harbor, Me.) were acclimatized for at least one week on a 12-hour light/dark cycle at 68-72° F., then fed either a standard (10% fat kcal) or high-fat diet containing 60 kcal % fat (Research Diets, Inc., New Brunswick, N.J.) for the duration of the study. All animals were access to their respective diets and water ad libitum. […] For each group, each mouse was given the drugs via i.p. injection, three times a week (Monday, Wednesday, Friday) for a total duration of 5 weeks. Before, and in the course of treatment, body weight, water and food consumption (by weighing before and after weights of water bottles and leftover food in individual cages) were measured 2×per week, while blood glucose measurements were conducted weekly via tail-bleeding while on physical restraint using disposable cone-shaped plastic holders (Kent Scientific). Various tissues (liver, skeletal muscles and adipose tissues) and blood (for lipid, insulin and glucose measurements), were collected and analyzed at the end of the experiment. Before termination of the study, glucose tolerance tests were performed on each mouse on the last week of treatment. For the glucose tolerance test (GTT), after an overnight fast, mice were injected intraperitoneally with glucose (2 g/kg body weight). […] Mice were euthanized by CO2 asphyxiation according to the Association for Assessment and Accreditation of Laboratory Animal Care International guidelines. The different experimental groups had at least 8 animals each.

[1] = in vivo; cited from earlier work
[2] = single oral dose; cited from earlier work
TGR5 [3] = biological target: T1, TGR5 (Homo sapiens, UniProt Q8TDU6); assay: cAMP assay in HEK293 overexpressing TGR5; format: cell-based; parameters: expressed in transfected cells; host or cells: HEK293 overexpressing TGR5; conditions: HEK293 cells, in vitro
T1 sequence (Q8TDU6 1-330): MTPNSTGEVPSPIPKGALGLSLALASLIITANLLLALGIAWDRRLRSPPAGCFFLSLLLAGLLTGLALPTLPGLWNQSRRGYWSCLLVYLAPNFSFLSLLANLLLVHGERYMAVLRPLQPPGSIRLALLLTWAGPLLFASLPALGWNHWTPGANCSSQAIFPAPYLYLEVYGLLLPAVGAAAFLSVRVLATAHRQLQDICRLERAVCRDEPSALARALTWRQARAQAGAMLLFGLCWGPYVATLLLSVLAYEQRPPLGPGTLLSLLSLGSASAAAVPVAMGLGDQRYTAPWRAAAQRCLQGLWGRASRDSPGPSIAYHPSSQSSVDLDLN
Protocol: (§1) Data analysis to determine EC50 values was performed with GraphPad Prism software using a cAMP standard curve and sigmoidal dose-response (variable slope) equation based on dose-response curves with tested compounds.
as §1

TGR5 [4] = biological target: T1, TGR5; conditions: HEK293 cells with human TGR5, pCRE-Luc; 0.1-50 μM test concentrations
Protocol: HEK293 overexpressing TGR5 cells were transfected 100 ng pCRE-luc reporter along with 10 ng pCMV-beta-galactosidase by HiPerfect (Qiagen).
Complexes were evaluated for their ability to activate TGR5 at 0.1, 0.5, 1, 5.0, 10, 30, and 50 μM test concentrations.
Cell Culture: HEK293 and HEK293-TGR5 overexpressing cells were cultured in high glucose Dulbecco's modified Eagle's medium (DMEM, CELLGRO®, Manassas, Va.) with L-glutamine supplemented with 10% (vol/vol) heat-inactivated fetal bovine serum (Gemini Bio-Products, West Sacramento, Calif.). TGR5-overexpressing HEK293 cells were maintained in G418-containing media until plating. Cells were plated in 24-well plates (5×10^5 cells/well) 24 h before transfection. Prior to transfection, cells were rinsed with PBS, and media was replaced with DMEM without phenol red supplemented with 10% super-stripped FBS.
TGR5 and FXR Luciferase Assay: To evaluate TGR5 activity of compounds, cells were transfected 100 ng pCRE-luc reporter along with pCMV-galactosidase (10 ng) as an internal control for normalization of transfection efficiency. Plasmids were complexed with 2 mL of FUGENE® 6 reagent (Promega, Madison, Wis.) in OPTIMEM® (Invitrogen, Carlsbad, Calif.) and cells were transfected for 18 h. The following day, cells were treated with vehicle and appropriate ligand as indicated. […]

Molecule: metformin-6eCDCA complex [DY305]
- significance of the effect in body weight loss (db/db mice; male db/db mice): not significant
- effect on body weight (db/db mice; male db/db mice, daily for 5 weeks): effective in body weight loss

Molecule: CN(C)C(=N)NC(=N)N [Metformin, N,N-dimethylbiguanidine]
- decrease of the level of HbA1c [1]: 1-2%
- time until undetectable in blood plasma [2]: ≤ 24 h
- direct activation of TGR5 to induce cAMP formation (TGR5 [3]): not a ligand for the TGR5; also recorded: did not directly activate TGR5

Molecule: metformin-6eUDCA complex [DY306]
- effect on increase of HbA1c (db/db mice; db/db mice): dose dependently blocked the increase of HbA1c
- glycemic control (db/db mice; db/db mouse model): improved glycemic control
- significance of the effect in body weight loss (db/db mice; male db/db mice): not significant

Molecule: Metformin-OA [DY310]
- potency in luciferase assays against TGR5 compared to the native TGR5 agonist (TGR5 [4]): greater potency in luciferase assays than oleanolic acid
